# Experimental data reported in ChEMBL document CHEMBL1795228, “Air to lung partition coefficients for volatile organic compounds and blood to lung partition coefficients for volatile organic compounds and drugs” (Eur J Med Chem, 2008).
# Experiment: In-vivo blood to lung partition coefficients of the compound, logP(lung) in rat
# Type: ADME
# Conditions: not given
row,Structure (SMILES),logP(lung)
1,O=C(CCCN1CCC(O)(c2ccc(Cl)cc2)CC1)c1ccc(F)cc1 [HALOPERIDOL],1.73
2,Oc1ccc(O)cc1 [HYDROQUINONE],-0.16
3,COCCc1ccc(OCC(O)CNC(C)C)cc1 (stereo not drawn) [METOPROLOL],1.06
4,CN(C)CCCN1c2ccccc2Sc2ccc(Cl)cc21 [CHLORPROMAZINE],1.81
5,CCc1cc2c(s1)N(C)C(=O)CN=C2c1ccccc1Cl [CLOTIAZEPAM],1.04
6,C=CC(=O)O [ACRYLIC ACID],0.14
7,OC(CCN1CCCCC1)(c1ccccc1)C1CCCCC1 (stereo not drawn) [TRIHEXYPHENIDYL],1.87
8,OCCOCCN1CCN(C(c2ccccc2)c2ccc(Cl)cc2)CC1 (stereo not drawn) [HYDROXYZINE],1.06

# Experiment: In-vivo serum to lung partition coefficients of the compound, logP(lung) in rat
# Type: ADME
# Conditions: octanol/water
row,Structure (SMILES),logP(lung)
1,CC[C@H]1OC(=O)[C@H](C)[C@@H](O[C@H]2C[C@@](C)(OC)[C@@H](O)[C@H](C)O2)[C@H](C)[C@@H](O[C@@H]2O[C@H](C)C[C@H](N(C)C)[C@H]2O)[C@](C)(O)C[C@@H](C)C(=O)[C@H](C)[C@@H](O)[C@]1(C)O [ERYTHROMYCIN],1.62
2,CC[C@H]1OC(=O)[C@H](C)[C@@H](O[C@H]2C[C@@](C)(OC)[C@@H](O)[C@H](C)O2)[C@H](C)[C@@H](O[C@@H]2O[C@H](C)C[C@H](N(C)C)[C@H]2O)[C@](C)(O)C[C@@H](C)CN(C)[C@H](C)[C@@H](O)[C@]1(C)O [AZITHROMYCIN],2.08
3,COC(=O)Nc1nc2cc(C(=O)N3CCN(c4ccccn4)CC3)ccc2[nH]1,-0.29

# Experiment: In-vivo blood/plasma to lung partition coefficients of the compound, logP(lung) in rat
# Type: ADME, cell-free
# Conditions: octanol/water
row,Structure (SMILES),logP(lung)
1,Cc1ncc2n1-c1ccc(Cl)cc1C(c1ccccc1F)=NC2 [MIDAZOLAM],0.6
2,C=CCOc1ccccc1OCC(O)CNC(C)C (stereo not drawn) [OXPRENOLOL],1.27
